Reference: patent US12077501B2, “Compounds and compositions for intracellular delivery of agents” (ModernaTX, Inc., priority 2017, dated 2024)

Assays:
[1] = pKa of nanoparticle compositions; assay type: physicochemical
[2] = Lipid clearance: % dose remaining in liver of CD-1 mice; assay type: in vivo; conditions: intravenous, 0.5 mg/kg, CD-1 mouse, Table 8a
Source text: In contrast, hEPO expression in rats induced by administration of a nanoparticle composition including a compound according to one of formulae (I), (Ia1)-(Ia6), (Ib), (II), (IIa), (III), and (IIIa) was substantially […] than that measured for MC3. […] Tables 7c and 7d show additional protein expressions and clearance data from compositions with various compounds disclosed herein as compared to with MC3. Tables 7e, 7f and 7g show hEPO expression data in CD-1 mice at a dose of 0.5 mpk.

[3] = Lipid purity change after storage in EtOH for 96 h at 25 or 37 °C; assay type: physicochemical
Procedure: Nanoparticle compositions including a therapeutic and/or prophylactic agent can be optimized according to the selection of a compound according to one of formulae (I), (Ia1)-(Ia10), (Ib), (Ic), (Id), (Id1)-(Id10), (Ie), (Ie1)-(Ie6), (II), (IIa), (III), and (IIIa), the selection of additional lipids, the amount of each lipid in the lipid component, and the wt:wt ratio of the lipid component to the therapeutic and/or prophylactic agent, as described herein. Initial studies were performed to compare the delivery efficiency of nanoparticle compositions including various compounds according to one of formulae (I), (Ia1)-(Ia10), (Ib), (Ic), (Id), (Id1)-(Id10), (Ie), (Ie1)-(Ie6), (II), (IIa), (III), and (IIIa). The cationic lipid MC3 is a current standard in the art. Also determined was the stability of nanoparticles of the disclosure, i.e., the purity after storage in EtOH for 96h at 25° C. or 37° C. (Table Id).

[4] = Encapsulation efficiency of RNA (QUANT-IT RIBOGREEN RNA assay); assay type: physicochemical; conditions: Table 1c; nanoparticle compositions
Procedure: For nanoparticle compositions including an RNA, a QUANT-IT™ RIBOGREEN® RNA assay (Invitrogen Corporation Carlsbad, CA) can be used to evaluate the encapsulation of an RNA by the nanoparticle composition. The samples are diluted to a concentration of approximately 5 μg/mL in a TE buffer solution (10 mM Tris-HCl, 1 mM EDTA, pH 7.5). 50 μL of the diluted samples are transferred to a polystyrene 96 well plate and either 50 μL of TE buffer or 50 μL of a 2% Triton X-100 solution is added to the wells. The plate is incubated at a temperature of 37° C. for 15 minutes. The RIBOGREEN® reagent is diluted 1:100 in TE buffer, and 100 μL of this solution is added to each well. The fluorescence intensity can be measured using a fluorescence plate reader (Wallac Victor 1420 Multilablel Counter; Perkin Elmer, Waltham, MA) at an excitation wavelength of, for example, about 480 nm and an emission wavelength of, for example, about 520 nm. The fluorescence values of the reagent blank are subtracted from that of each of the samples and the percentage of free RNA is determined by dividing the fluorescence intensity of the intact sample (without addition of Triton X-100) by the fluorescence value of the disrupted sample (caused by the addition of Triton X-100).

[5] = Particle size and polydispersity index of nanoparticle compositions (Zetasizer Nano ZS); assay type: physicochemical; conditions: Table 1c; nanoparticle compositions
Procedure: A Zetasizer Nano ZS (Malvem Instruments Ltd, Malvem, Worcestershire, UK) can be used to determine the particle size, the polydispersity index (PDI) and the zeta potential of the nanoparticle compositions in 1×PBS in determining particle size and 15 mM PBS in determining zeta potential.

Row | SMILES | pKa ([1]; Table 1b) | % Dose Remaining 6 hr [2] [%] | % Dose Remaining 24 hr [2] [%] | Lipid % change purity in EtOH, 25° C., 96 h [3] [%] | Lipid % change purity in EtOH, 37° C., 96 h [3] [%] | EE (%) [4] [%] | PDI [5] | Size (nm) [5] [nm] | pKa ([1]; Table 1c)
1 | CCCCCCCCCCCCN(CCCOC(=O)CCCCCCC)CC(=O)N1CCN(C(=O)CN(CCCCCCCCC)CCN(CCCCCCCCC)CCCCCCCCC)CC1 [Compound 135, 3-((2-(4-(N-(2-(Dinonylamino)ethyl)-N-nonylglycyl)piperazin-1-yl)-2-oxoethyl)(dodecyl)amino)propyl Octanoate] |  |  | 0.16 | 2.26 | 4.09 | 98.6 | 0.22 | 81.1 | 6.90
2 | CCCCC/C=C\CCN(CC/C=C\CCCCC)CCN(CC/C=C\CCCCC)CC(=O)N1CCN(C(=O)CN(CCCCCCCCC)CCCCCCCCC)CC1 [Compound 136, 2-((2-(Di((Z)-non-3-en-1-yl)amino)ethyl)((Z)-non-3-en-1-yl)amino)-1-(4-(dinonylglycyl)piperazin-1-yl)ethan-1-one] |  |  | 56.18 | −0.71 | 0.77 | 97.7 | 0.23 | 72.1 | 6.13
3 | CCCCCC/C=C\CC(=O)OCCCN(CCCCCCCCCCCCCC)CC(=O)N1CCN(C(=O)CN(CCCCCCCCC)CCN(CCCCCCCCC)CCCCCCCCC)CC1 [Compound 137, 3-((2-(4-(N-(2-(Dinonylamino)ethyl)-N-nonylglycyl)piperazin-1-yl)-2-oxoethyl)(tetradecyl)amino)propyl (Z)-dec-3-enoate] |  |  | 0.26 | 0.36 | 1.17 | 98.8 | 0.22 | 78.5 | 6.93
4 | CCCCC/C=C\CCN(CC/C=C\CCCCC)CCN(CC/C=C\CCCCC)CC(=O)N1CCN(C(=O)CN(CCCCCCCCC)CCCCCCCC(=O)OC)CC1 [Compound 139, Methyl 8-((2-(4-(N-(2-(Di((Z)-non-3-en-1-yl)amino)ethyl)-N—((Z)-non-3-en-1-yl)glycyl)piperazin-1-yl)-2-oxoethyl)(nonyl)amino)octanoate] |  |  | 0.29 | 0.67 | 1.49 | 94.8 | 0.23 | 83.8 | 6.15
5 | CCCCCCCCCCCC(=O)N1CCN(C(=O)CN(CCCCCCCCC)CCN(CCCCCCCCC)CCCCCCCCC)CC1 [Compound 143, 1-(4-(N-(2-(Dinonylamino)ethyl)-N-nonylglycyl)piperazin-1-yl)dodecan-1-one] |  |  | 38.63 | 1.10 | 1.80 | 97.4 | 0.21 | 93.7 | 7.26
6 | CCCCCCCCCN(CCCCCCCCC)CCN(CCCCCCCCC)CC(=O)N1CCN(C(=O)CCCC(=O)OCCCCCCC)CC1 [Compound 144, Heptyl 5-(4-(N-(2-(dinonylamino)ethyl)-N-nonylglycyl)piperazin-1-yl)-5-oxopentanoate] |  |  | 3.25 | 5.06 | 7.63 | 97.2 | 0.19 | 83.3 | 7.59

The remaining lines, values ahead:

Row | pKa ([1]; Table 1b) | % Dose Remaining 6 hr [2] [%] | % Dose Remaining 24 hr [2] [%] | Lipid % change purity in EtOH, 25° C., 96 h [3] [%] | Lipid % change purity in EtOH, 37° C., 96 h [3] [%] | EE (%) [4] [%] | PDI [5] | Size (nm) [5] [nm] | pKa ([1]; Table 1c) | SMILES
7 | 6.74 | 52.40 | 53.65 |  |  |  |  |  |  | CCCCCCCCCN(CCCCCCCCC)CCCC1CCN(C(=O)CCN(CCCCCCCCC)CCN(CCCCCCCCC)CCCCCCCCC)CC1 [Compound 85, 3-((2-(Dinonylamino)ethyl)(nonyl)amino)-1-(4-(3-(dinonylamino)propyl)piperidin-1-yl)propan-1-one]
8 | 7.58 | 0.16 | 0.12 | 8.1 | 20.8 |  |  |  |  | CCCCCCCCCN(CCCOC(=O)CCCCC)CCC(=O)N1CCN(C(=O)CCN(CCCCCCCCC)CCN(CCCCCCCCC)CCCCCCCCC)CC1 [Compound 86, 3-((3-(4-(3-((2-(Dinonylamino)ethyl)(nonyl)amino)propanoyl)piperazin-1-yl)-3-oxopropyl)(nonyl)amino)propyl hexanoate]
9 | 6.79 | 0.07 | 0.05 |  |  |  |  |  |  | CCCCCCCCCN(CCCOC(=O)CCCCC)CCCC1CCN(C(=O)CCN(CCCCCCCCC)CCN(CCCCCCCCC)CCCCCCCCC)CC1 [Compound 87, 3-((3-(1-(3-((2-(Dinonylamino)ethyl)(nonyl)amino)propanoyl)piperidin-4-yl)propyl)(nonyl)amino)propyl Hexanoate]
10 |  |  | 9.10 | 8.46 | 15.47 | 96.9 | 0.24 | 70.3 | 5.17 | CCCCCCCCCN(CCCCCCCCC)CCN(CCCCCCCCC)CCOC(=O)C1CCN(C(=O)CN(CCCCCCCCC)CCCCCCCCC)CC1 [Compound 129, 2-((2-(Dinonylamino)ethyl)(nonyl)amino)ethyl 1-(dinonylglycyl)piperidine-4-carboxylate]
11 |  |  | 2.33 | 3.54 | 4.46 | 98.0 | 0.23 | 84.9 | 6.90 | CCCCCCCCCN(CCCCCCCCC)CCN(CCCCCCCCC)CC(=O)N1CCN(C(=O)CN(CCCCCCCCC)CC(C)COC(=O)CCCCC)CC1 (stereo not drawn) [Compound 130, 3-((2-(4-(N-(2-(Dinonylamino)ethyl)-N-nonylglycyl)piperazin-1-yl)-2-oxoethyl)(nonyl)amino)-2-methylpropyl hexanoate]
12 |  |  | 80.27 | 11.96 | 12.43 | 98.5 | 0.17 | 85.4 | 7.02 | CCCCCCCCCN(CCCCCCCCC)CCN(CCCCCCCCC)CC(=O)N1CCN(C(=O)CN(CCCCCCCCC)CCCOC(=O)CC(C)CCC)CC1 (stereo not drawn) [Compound 131, 3-((2-(4-(N-(2-(Dinonylamino)ethyl)-N-nonylglycyl)piperazin-1-yl)-2-oxoethyl)(nonyl)amino)propyl 3-methylhexanoate]
13 |  |  | 0.81 | 1.84 | 5.54 | 98.6 | 0.23 | 83.1 | 6.49 | CCCCCCCCCN(CCCCCCCCC)CCN(CCCCCCCCC)CC(=O)N1CCC(CCN(CCCCCCCCC)CC(C)COC(=O)CCCCC)CC1 (stereo not drawn) [Compound 132, 3-((2-(1-(N-(2-(Dinonylamino)ethyl)-N-nonylglycyl)piperidin-4-yl)ethyl)(nonyl)amino)-2-methylpropyl hexanoate]
14 |  |  | 13.02 |  |  |  |  |  | 6.58 | CCCCCCCCCN(CCCOC(=O)CC(C)CCC)CCC1CCN(C(=O)CN(CCCCCCCCC)CCN(CCCCCCCCC)CCCCCCCCC)CC1 (stereo not drawn) [Compound 133, 3-((2-(1-(N-(2-(Dinonylamino)ethyl)-N-nonylglycyl)piperidin-4-yl)ethyl)(nonyl)amino)propyl 3-methylhexanoate]
15 |  |  | 33.71 | 1.60 | 11.81 | 96.7 | 0.21 | 82.1 | 6.85 | CCCCCCCCCN(CCCCCCCCC)CCN(CCCCCCCCC)CC(=O)N1CCN(C(=O)CN(CCCCCCCCC)CCCC(=O)SCCCCC)CC1 [Compound 134, S-Pentyl 4-((2-(4-(N-(2-(dinonylamino)ethyl)-N-nonylglycyl)piperazin-1-yl)-2-oxoethyl)(nonyl)amino)butanethioate]
